Experimental data from publication PMC10535864, “Novel Aminopyrimidine-2,4-diones, 2-Thiopyrimidine-4-ones, and 6-Arylpteridines as Dual-Target Inhibitors of BRD4/PLK1: Design, Synthesis, Cytotoxicity, and Computational Studies” (Pharmaceuticals, 2023).

Key:
[1] = target: T1, BRD4 (BD2) (Homo sapiens, UniProt O60885); assay: BRD4 inhibitory activity assay (AlphaLISA Bromodomain Assay); type: binding;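 note: in vitro inhibition of recombinant BRD4 BD2 bromodomain binding to a BET bromodomain ligand, read by AlphaLISA proximity signal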
T1 construct: BRD4 (BD2) should be thawed on ice; purchased

[2] = system: MDA-MB-231 cells; assay: Cell cycle analysis, propidium iodide flow cytometry; type: cell-based; details: treated at IC50 concentration, 48 h, control 9.19%
Source text: (§1) The results are indicated as a dot plot graph with four quadrant images (Figure 5B). […] However, both compounds also raised the necrotic percent by 1.8- and 2.8-fold, respectively, compared to non-treated cells. Overall, these findings implied that compound 7 could exert anticancer activity by producing cell cycle arrest at the G2/M phase and inducing apoptosis.
(§2) An Epics XL-MCL™ Flow Cytometer and Flowing software 2012 were used to count and analyze stained cells. The Supplementary file contains detailed descriptions of the flow cytometric analysis of cell-cycle distribution and cellular apoptosis. […]
(§3) 1.3.Cell cycle and apoptosis screening […]
(§4) investigated using an Ab-139418 propidium iodide flow cytometry kit and an Annexin-V assay and biparametric cytofluorimetric analysis, respectively, as instructed by the manufacturer. IC50s of both 7 and […]
Cytometer and Flowing software were used to count and analyze stained cells. The Supplementary file contains detailed descriptions of the flow cytometric analysis of cell-cycle distribution and cellular apoptosis.
1.3.1. Cell cycle analysis […]
a six-well plate containing MDA-MB-231 breast cancer cells was seeded with 1 X 10^5 cells per well and then […]
Following that, cells were gathered and fixed in ice-cold 70% ethanol at 4 °C for 12 hours. The cells were then rinsed with cold Phosphate Buffer Saline (PBS) and incubated for 30 minutes at 37°C in 0.5 mL of PBS after the ethanol was removed. Propidium iodide was used to stain the cells for 30 min while they were in the dark. DNA content was determined using a flow cytometer. […]

[3] = system: MDA-MB-231 cells; assay: Apoptosis screening, annexin V-FITC/PI flow cytometry; type: cell-based; details: compared to non-treated control MDA-MB-231 cells
Source text: as §1, §2, §3, §4
Cytometer and Flowing software were used to count and analyze stained cells. The Supplementary file contains detailed descriptions of the flow cytometric analysis of cell-cycle distribution and cellular apoptosis. […]
1.3.2. Apoptosis screening […]
plate received 1 X 105 conc. breast cancer (MDA-MB-231) cells that were then incubated for 24 hours. The cells […]
with PBS, and stained for 15 min at room temperature in the dark with annexin V-FITC and PI in binding buffer (10 […]
µM HEPES, 140 µM NaCl, and 2.5 µM CaCl2 at pH 7.4). […]
high-quality RNA iseluted in RNase-free water.
1.4.2. Master mix preparation
All the following reagents were mixed together to give a totalvolume (50 μL). 2X SYBR® Green RT-PCR reaction mixture (25 μL), forward primer (10 μM) (1.5 μL), reverse primer (10 μM) (1.5 μL), nuclease-free H2O (11 μL), RNA template (1 pg to 100 ng totalRNA) (10 μL) and iScript reverse transcriptase for One-Step RT-PCR (1 μL).
1.4.3. Amplification protocol
Incubate complete reaction mixture in a real-time thermal detection system (Rotorgene) as follows: cDNA synthesis:
10 min at 50 °C, iScript reverse transcriptase inactivation: 5 min at 95 °C, polymerase chain reaction (PCR) cycling and detection (30–45 cycles): 10 s at 95 °C and 30 s at 55 °C to 60 °C (data collection step) and melt curve analysis:
1 min at95 °C and 1 min at55 °C and 10 s at55 °C (80 cycles, increasing each by 0.5 °C each cycle).

[4] = system: BAX gene in MDA-MB-231 cells; assay: RT-PCR gene expression, BAX; type: cell-based; details: 48 h treatment, control = 1
Protocol: (§5) As well, there was an apparent increase in caspase-3, showing 3.9-fold more expression than in control cells.
(§6) Fluorometric analysis was used to gauge the level of these genes’ expression. The procedure for the used kit was carried out in accordance with the manufacturer’s instructions, which are detailed in the Supplementary file. […]
(§7) […] at pH 7.4). The flow cytometer was then used to examine the cells […]
(§8) 1.4.Estimation of apoptotic and anti-apoptotic gene markers […]
(§9) such as Bax and caspase-3, as well as anti-apoptotic genes such as Bcl-2, was studied using the BIORAD iScriptTM One-Step RT-PCR kit with SYBR® Green. MDA-MB-231 cells were cultured before being treated for 48 hours […]
(§10) Fluorometric analysis was used to gauge the level of these genes' expression. The procedure for the used kit was carried out in accordance with the manufacturer's instructions, which are detailed as follows:
(§11) 1.4.1. RNA isolation and reverse transcription m RNA isolation iscarried out using an RNeasy extraction kit,up to 1 x 10^7 cells, depending on the cell line. Cells are disrupted in RNeasy Lysis Buffer (RLT buffer), homogenized, then ethanol is added to the lysate, creating conditions that promote selective binding of RNA to the RNeasy membrane. […]

[5] = target: human recombinant PLK1 (Homo sapiens, UniProt P53350); assay: PLK1 inhibitory activity assay (ADP-Glo Kinase Assay); type: biochemical; details: for %inh: PLK1 Lab Report
Chain of human recombinant PLK1 (P53350 whole entry): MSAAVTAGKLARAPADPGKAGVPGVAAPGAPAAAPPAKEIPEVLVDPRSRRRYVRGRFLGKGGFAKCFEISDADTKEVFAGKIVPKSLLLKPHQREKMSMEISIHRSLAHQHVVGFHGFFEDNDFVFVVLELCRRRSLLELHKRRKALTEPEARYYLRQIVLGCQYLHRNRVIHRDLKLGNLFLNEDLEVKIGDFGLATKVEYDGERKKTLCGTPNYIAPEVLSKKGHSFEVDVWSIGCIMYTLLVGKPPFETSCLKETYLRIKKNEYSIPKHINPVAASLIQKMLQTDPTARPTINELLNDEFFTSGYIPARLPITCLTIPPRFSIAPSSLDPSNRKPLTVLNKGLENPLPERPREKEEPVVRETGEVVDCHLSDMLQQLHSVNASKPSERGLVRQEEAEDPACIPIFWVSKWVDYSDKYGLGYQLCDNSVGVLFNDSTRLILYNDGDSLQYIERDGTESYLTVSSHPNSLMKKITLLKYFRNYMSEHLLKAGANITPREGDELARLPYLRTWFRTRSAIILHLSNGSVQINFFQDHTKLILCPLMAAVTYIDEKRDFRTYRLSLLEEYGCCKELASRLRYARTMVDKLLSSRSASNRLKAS
Protocol: The BRD4 and PLK1 inhibitory assays were carried out in vitro in accordance with the manufacturer’s instructions; BRD4 was assessed using AlphaLISA Bromodomain Assay Protocol, and PLK1 kinase was tested using the ADP-Glo™ Kinase Assay Protocol, as detailed in the Supplementary file. […]
1.2.2. PLK1 inhibitory activity assay
The kinase reaction was performed with active human recombinant PLK1 and combined with the substrate dephosphorylated casein (positive control) using 1 X reaction buffer (40 mM Tris-HCl pH 7.4, 20 mM MgCl2, 0.1 mg/mL BSA, 1 mM DTT) and 20 μM ATP. The reaction was incubated at30°C for 45 minutes. The amount of ATP transferred was calculated using […] reagent from Promega according to the manufacturer’s instruction.
A plate-reading luminometer isused to measure the luminescence. […]

[6] = system: Bcl-2 gene in MDA-MB-231 cells; assay: RT-PCR gene expression, Bcl-2; type: cell-based; details: 48 h treatment, control = 1
Protocol: as §5, §6, §7, §8, §9, §10, §11

[7] = system: caspase-3 gene in MDA-MB-231 cells; assay: RT-PCR gene expression, caspase-3; type: cell-based; details: 48 h treatment, control = 1
Protocol: as §5, §6, §7, §8, §9, §10, §11

IC50 [1]: 17 ± 1 nM
%inh ([5]; conc 0.01 (unit not given)): 42%
%inh ([5]; conc 0.1 (unit not given)): 58%
%inh ([5]; conc 1 (unit not given)): 76%
%inh ([5]; conc 10 (unit not given)): 91%
%inh ([5]; conc 100 (unit not given)): 96%
IC50 ([5]; mean of three independent experiments, read-out: PLK1 IC50 ± SD): 25 ± 1 nM
Structure (SMILES): CC[C@@H]1C(=O)N(C)c2cnc(Nc3ccc(C(=O)N[C@H]4CC[C@H](N5CCN(CC6CC6)CC5)CC4)cc3OC)nc2N1C(C)C [Volasertib, reference compound]
DNA content % at cell cycle phase %G2/M [2]: 17.38%
elevation in the late apoptotic stage [3]: ~110.2 fold
increase in early apoptosis [3]: 24.4 fold
increase in total apoptosis [3]: 16.3 fold
rise of necrotic percent [3]: 2.8 fold
Gene expression BAX (apoptotic gene) [4]: 5.332 fold
Gene expression Bcl-2 (anti-apoptotic gene) [6]: 0.351 fold
Gene expression Caspase-3 (apoptotic gene) [7]: 5.531 fold
